# Source: US9440913B2, “Dihydroxybenzene derivatives and antiprotozoal agent comprising same as active ingredient” (NAI INC., priority 2010, dated 2016)
# Read-outs that look alike come from different tables or passages of the source.
# Experiments:
# [1] = target: T1, recombinant Trypanosome AOX (TAO) enzyme (Trypanosoma brucei brucei, UniProt Q26710); assay: TAO enzyme inhibition (quinol oxidase activity, ubiquinol-1 substrate); format: biochemical, T. brucei brucei; conditions: TAO-expressing E. coli membrane fraction, 25° C., ubiquinol-1, absorbance at 278 nm
# T1 construct: made in house; host or cells: Escherichia coli (membrane fraction)
# Procedure: Escherichia coli membrane fractions that express TAO by a plasmid harboring TAO cDNA cloned from T. brucei brucei (Fukai, Comparative Biochemistry & Physiology, 124, 141-148, 1999) were used as a recombinant Trypanosome AOX (TAO) enzyme. 50 mM Tris-HCl (pH 7.5), TAO-expressing membrane fraction (0.35 ng), and […] of an inhibitor were mixed in a 1 mL cuvette, and the mixture was incubated at 25° C. for 4 minutes. Ubiquinol-1 as a substrate was then added to the mixture to initiated the reaction, and change in absorbance at 278 nm was monitored (Shimadzu UV-3000, molar absorption coefficient ε=15 cm^−1 mM^−1).
# [2] = system: T. b. rhodesiense IL1501; assay: Antiprotozoal effect, MIC measurement in HMI-9 culture; format: cell-based; conditions: for MIC: Trypanosoma brucei, RHODESIENSE, 24 h, bloodstream forms, 18 + 6 hours culture
# Procedure: T. b. rhodesiense IL1501, the human infectious protozoan that causes acute symptoms, was used as a Trypanosomatid protozoan. The bloodstream forms of protozoan can be cultured in a HMI-9 culture medium (Hirumi, 1989). The protozoan was always cultured at a temperature of 37° C. in the presence of 5% CO2.
# In a microtiter plate (96-well, FALCON 3072), HMI-9 culture medium and HMI-9 culture medium plus glycerol added to make a final concentration of 8.33 mM are separately prepared. 89 μL of the preparation are put into only the first well, and a 60 μL aliquot of each the other wells. 1 μL of a solution of AF or a AF derivative dissolved in DMSO was added to the first well, and was then suspended. A 30 μL aliquot of the suspension was then collected, was transferred to the second well, and was suspended. These operations were repeated in this order to prepare a three-fold dilution series of drug. A 40 μL aliquot of a protozoan culture was added to each well to make a final concentration of 5×10^4 cells/well (a final concentration of glycerol of 5 mM) followed by 18-hours culturing under conditions of 37° C. and 5% CO2. (For EC50 measurement, a 10 μL aliquot of Alamar Blue was added to each well), culturing was carried out under the same conditions for 6 more hours, surviving protozoans were visually observed with a microscope. The concentration at which no motile surviving protozoan was observed was defined as MIC.
# [3] = target: Cryptosporidium cyanide insensitive oxidase (AOX), recombinant protein (cCpAOX) (Cryptosporidium parvum, UniProt Q761U6); assay: CpAOX enzyme inhibition; format: biochemical
# Description: Cryptosporidium has found to have cyanide insensitive oxidase (AOX), and its inhibitory activity was observed using its recombinant protein (cCpAOX) produced in E. coli.
# [4] = Glycerol (+), final concentration of glycerol of 5 mM
# T1 sequence (Q26710 whole entry): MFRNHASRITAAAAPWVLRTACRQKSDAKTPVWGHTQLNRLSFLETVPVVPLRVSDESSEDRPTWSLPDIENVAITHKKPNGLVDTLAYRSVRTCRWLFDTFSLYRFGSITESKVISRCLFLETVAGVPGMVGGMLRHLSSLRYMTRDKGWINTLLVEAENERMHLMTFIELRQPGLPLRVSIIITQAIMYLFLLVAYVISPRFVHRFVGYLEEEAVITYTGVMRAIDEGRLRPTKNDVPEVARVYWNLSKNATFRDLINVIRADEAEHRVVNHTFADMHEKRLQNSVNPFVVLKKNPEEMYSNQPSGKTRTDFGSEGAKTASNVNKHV
# Sequence of Cryptosporidium cyanide insensitive oxidase (AOX), recombinant protein (cCpAOX) (Q761U6 entry or part of it): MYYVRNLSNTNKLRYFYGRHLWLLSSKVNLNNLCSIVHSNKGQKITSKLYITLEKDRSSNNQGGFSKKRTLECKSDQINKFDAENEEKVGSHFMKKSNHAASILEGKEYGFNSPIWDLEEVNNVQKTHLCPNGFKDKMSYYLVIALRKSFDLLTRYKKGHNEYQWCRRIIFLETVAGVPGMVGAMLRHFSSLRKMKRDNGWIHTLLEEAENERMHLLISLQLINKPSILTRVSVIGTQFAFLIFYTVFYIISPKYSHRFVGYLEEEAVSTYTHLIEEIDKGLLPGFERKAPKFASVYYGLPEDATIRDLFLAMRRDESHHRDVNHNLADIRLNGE
Compound,IC50 [1] [nM],melting point [°C],further results
"Cc1c(Cl)c(O)c(CCCCCCCCCC(=O)OC(C)(C)C)c(O)c1C=O [Compound 215-13-COOBu, tert-Butyl 10-(3-chloro-2,6-dihydroxy-5-formyl-4-methylphenyl)decanoate]",0.25,,"MIC [2, 4]: 1.2 nM; MIC ([2]; Glycerol (−)): 16 nM; IC50 [3]: 0.92 nM"
"Cc1c(Cl)c(O)c(CCCCCCCCCC(=O)OCC2COC(=O)O2)c(O)c1C=O (stereo not drawn) [Compound 501-16-G, 1,3 Dioxolane-2-oxo-4-methyl 10-(3-chloro-5-formyl-2,6-dihydroxy-4-methylphenyl)decanoate]",0.32,70 to 72,"MIC [2, 4]: 1800 nM; MIC ([2]; Glycerol (−)): 14000 nM"
"Cc1c(Cl)c(O)c(CCC(C)CCCCOC(=O)C(C)(C)C)c(O)c1C=O (stereo not drawn) [Compound 265-11-OPiv, 7-(3-Chloro-2,6-dihydroxy-5-formyl-4-methylphenyl)-5-methylheptyl pivalate]",0.36,,IC50 [3]: 2.3 nM
"CC(=O)c1c(C)c(Cl)c(O)c(C/C=C(\C)CC/C=C(\C)CCC=C(C)C)c1O [Compound 282-12, (E,E)-3-Chloro-4,6-dihydroxy 5-(3,7,11-trimethyl-2,6,10-dodecathenyl)-2-methylacetophenone]",0.15,92 to 93,"MIC [2, 4]: 11 nM; MIC ([2]; Glycerol (−)): 19 nM"
"CC(=O)c1c(C)c(Cl)c(O)c(C/C=C(\C)CCC=C(C)C)c1O [Compound 173, (E)-3-Chloro-4,6-dihydroxy-5-(3,7-dimethyl-2,6-octadienyl)-2-methylacetophenone]",0.15,57 to 58,"Antiprotozoal Effect (MIC) Glycerol (+) ([2]; Glycerol (+), final concentration of glycerol of 5 mM, cell prints its own unit fM): 0.0008 nM; MIC ([2]; Glycerol (−)): 1.4 nM"
"CCC(=O)OCCCCCCC/C=C/c1c(O)c(Cl)c(C)c(C=O)c1O [Compound 200-13-OCOEt, (E)-9-(3-Chloro-5-formyl-2,6-dihydroxy-4-methylphenyl)-8-nonenyl propionate]",0.3,72 to 73,
"Cc1c(Cl)c(O)c(CCCCCCCC2CC(=O)C(C)(C)O2)c(O)c1C=O (stereo not drawn) [Compound 250, 5-Chloro-2,4-dihydroxy-6-methyl-3-[7-(3,3-dimethyl-4-oxo-2-oxacyclopentyl)heptyl]benzaldehyde]",0.5,70 to 71,"MIC [2, 4]: 0.78 nM; MIC ([2]; Glycerol (−)): 12 nM"
"C/C(=C\Cc1c(O)c(Cl)c(C)c(C=O)c1O)CC/C=C(\C)C1OC(C)C(C)O1 (stereo not drawn) [Compound 509-11, 3-Chloro-5-((2E,6E)-7-(4,5-dimethyl-1,3-dioxolane-2-yl)-3-methyl-2,6-octadienyl)-4,6-dihydroxy-2-methylbenzaldehyde]",0.3,35 to 36,
"C/C(=C\CC/C(C)=C/Cc1c(O)c(Cl)c(C)c(C=O)c1O)CO [Compound 236-9-OH, 3-Chloro-4,6-dihydroxy-5-[(2E,6E)-8-hydroxy-3,7-dimethyl-2,6-octadienyl]-2-methylbenzaldehyde]",0.3,99 to 99.7,
"CCCCCC(C)CCc1c(O)c(Cl)c(C)c(C=O)c1O (stereo not drawn) [Compound 265-8, 3-Chloro-4,6-dihydroxy-2-methyl-5-(3-methyloctyl)benzaldehyde]",0.18,65 to 67,"MIC [2, 4]: 0.011 nM; MIC ([2]; Glycerol (−)): 0.46 nM"
"Cc1c(Cl)c(O)c(CCCCCCCCOC(=O)C(C)C)c(O)c1C=O [Compound 215-12-OCOiPr, 8-(3-Chloro-5-formyl-2,6-dihydroxy-4-methylphenyl)octyl isobutylate]",0.29,,"IC50 ([3]; recombinant protein produced in E. coli, read-out: CpAOX enzyme inhibition (IC50:nM)): 3.7 nM"
"CCCCCC(C)=CCc1c(O)c(Cl)c(C)c(C(C)=O)c1O (mixture of isomers) [Compound 268-8, (E/Z)-3-Chloro-4,6-dihydroxy-2-methyl-5-(3-methyl-2-octenyl)acetophenone]",0.55,42 to 46,"MIC [2, 4]: 0.28 nM; MIC ([2]; Glycerol (−)): 14.7 nM"
"COCOC/C(C)=C/CC/C(C)=C/Cc1c(O)c(Cl)c(C)c(C=O)c1O [Compound 236-12-OMOM, 3-Chloro-5-[(2E,6E)-3,7-dimethyl-8-(methoxymethoxy)-2,6-octadienyl]-4,6-dihydroxy-2-methylbenzaldehyde]",0.12,49 to 50,
"C/C(=C\Cc1c(O)c(Cl)c(C)c(C=O)c1O)CC/C=C(\C)COC1CCCO1 (stereo not drawn) [Compound 236-12-OTHF, 3-Chloro-5-[(2E,6E)-3,7-dimethyl-8-(tetrahydrofuran-2-yloxy)-2,6-octadienyl]-4,6-dihydroxy-2-methylbenzaldehyde]",0.12,35 to 36,
"Cc1c(Cl)c(O)c(CCCCCCCOC(=O)C(C)(C)C)c(O)c1C#N [Compound 193-11-OPiv, 7-(3-Chloro-5-cyano-2,6-dihydroxy-4-methylphenyl)heptyl pivalate]",6,67 to 68,
"CC(C)=CCCC#CCc1c(O)c(Cl)c(C)c(C=O)c1O [Compound 285-8, 3-Chloro-4,6-dihydroxy-2-methyl-5-(7-methyl-6-octen-2-ynyl)benzaldehyde]",0.3,138,
"Cc1c(Cl)c(O)c(CCCCCCCCCCCC(=O)O)c(O)c1C=O [Compound 215-13-COOH, 12-(3-Chloro-5-formyl-2,6-dihydroxy-4-methylphenyl)dodecanoic acid]",4.2,130 to 131,
"C/C(C=O)=C\CC/C(C)=C/Cc1c(O)c(Cl)c(C)c(C=O)c1O [Compound 274-9, 3-Chloro-5-[(2E,6E)-3,7-dimethyl-8-oxo-2,6-octadienyl]-4,6-dihydroxy-2-methylbenzaldehyde]",0.3,111.2 to 111.4,
"Cc1c(Cl)c(O)c(/C=C/CCCCCCOC(=O)C(C)(C)C)c(O)c1C=O [Compound 200-12-OPiv, (E)-8-(3-Chloro-5-formyl-2,6-dihydroxy-4-methylphenyl)-7-octenyl pivalate]",0.7,57 to 58,
"C/C(=C\Cc1c(O)c(Cl)c(C)c(C=O)c1O)CC/C=C(\C)CCC1OC1(C)C (stereo not drawn) [Compound 281-12, 3-Chloro-5-[(2E,6E)-3,7-dimethyl-9-(3,3-dimethyloxiran-2-yl)-2,6-nonadienyl]-4,6-dihydroxy-2-methylbenzaldehyde]",0.21,36 to 37,
"CC(C)=CCC/C(C)=C/Cc1c(O)ccc(C=O)c1O [Compound 217, (E)-2,4-Dihydroxy-3-(3,7-dimethyl-2,6-octadienyl)benzaldehyde]",,85,
"CC(C)=CCC/C(C)=C/Cc1c(O)c(Cl)cc(C=O)c1O [Compound 224, (E)-5-Chloro-2,4-dihydroxy-3-(3,7-dimethyl-2,6-octadienyl)benzaldehyde]",,94 to 95,
"Cc1c(Cl)c(O)c(CCC(C)CCCC(C)COC(=O)C(C)(C)C)c(O)c1C=O (stereo not drawn) [Compound 235-12-OPiv, 8-(3-Chloro-5-formyl-2,6-dihydroxy-4-methylphenyl)-2,6-dimethyloctyl pivalate]",,,IC50 [3]: 2.3 nM
"COC(=O)c1c(C)cc(O)c(C/C=C(\C)CCC=C(C)C)c1O [Compound 146, Methyl (E)-3-(3,7-Dimethyl-2,6-octadienyl)-2,4-dihydroxy-6-methylbenzoate]",,46 to 47,
"C/C(=C\Cc1c(O)c(Cl)cc(C=O)c1O)CC/C=C(\C)C1CC(=O)C(C)(C)O1 (stereo not drawn) [Compound 209, 5-Chloro-2,4-dihydroxy-3-[(2E,6E)-7-(5,5-dimethyl-4-oxotetrahydrohuran-2-yl)-3,7-dimethyl-2,6-heptadienyl]benzaldehyde]",0.2,70 to 72,
"Cc1c(Cl)c(O)c(CCCCCCCCCOC(=O)C(C)(C)C)c(O)c1C=O [Compound 215-13-OPiv, 9-(3-Chloro-5-formyl-2,6-dihydroxy-4-methylphenyl)nonyl pivalate]",0.22,62,"MIC [2, 4]: 0.0081 nM; MIC ([2]; Glycerol (−)): 280 nM"
"CCOC(=O)CCCCCCCCCCCc1c(O)c(Cl)c(C)c(C=O)c1O [Compound 215-15-COOEt, Ethyl 12-(3-chloro-5-formyl-2,6-dihydroxy-4-methylphenyl)dodecanoate]",0.3,,IC50 [3]: 1.8 nM
